Reference: patent US20260308172A1, “TRICYCLIC COMPOUNDS FOR TREATMENT OF BACTERIAL INFECTIONS” (priority 2023, published 2026)
≈ marks a conversion by molar mass, not a printed value.

How the values were obtained:
[1] = test system: Klebsiella pneumonia ATCC 43816; experiment: Minimal Inhibitory Concentration (MIC) assay, Klebsiella pneumonia ATCC 43816; assay type: cell-based; conditions: Klebsiella pneumoniae, ATCC43816, 20 h, read-out: MIC Klebsiella pneumoniae ATCC43816
Description: (§1) The antibacterial activity of the compounds of the present invention was evaluated against the commonly used quality control strain Escherichia coli ATCC 25922 and the rifampin-resistant mutant strain Klebsiella pneumonia ATCC 43816. Both were originally derived from human clinical samples and are available from ATCC (American Type Culture Collection). The in vitro potency of compounds to inhibit Escherichia coli (ATCC 25922) and Klebsiella pneumonia (ATCC 43816) growth was assessed by the MIC (Minimal Inhibitory Concentration) broth dilution method. Specifically compound dilutions were prepared from 10 mM DMSO stock solutions as follows: i) serial 2-fold dilution in 20 μL DMSO were prepared in a master plate (Greiner, Cat No: 651201), ii) 180 μL sterile distilled water was added to each aliquot and iii) 10 μL diluted compounds were transferred into a new assay plate (Costar, 3599).
(§2) Vials of each test microorganisms were maintained frozen in the vapor phase of a liquid nitrogen freezer. Single-use frozen vials of the two strains Escherichia coli ATCC 25922 (KWIKSTIK, 0335K) and Klebsiella pneumonia ATCC 43816, with predetermined CFU/mL, were taken out from the freezer, thawed at room temperature, and diluted in Cation-Adjusted Mueller Hinton Broth (CAMHB) to achieve a final inoculum of 5×10^5 CFU/mL. 90 μL bacteria containing broth was dispensed to the assay plate containing the pre-dispensed compound dilutions and mixed by pipetting 5 times.
(§3) Then the assay plates were incubated for 20 hours at 35° C. in ambient air. Following incubation, the MIC (μg/mL), the lowest concentration of drug that inhibits visible growth of the microorganism was read with the help of a magnification mirror and recorded.

[2] = test system: Escherichia coli ATCC 25922; experiment: Minimal Inhibitory Concentration (MIC) assay, Escherichia coli ATCC 25922; assay type: cell-based; conditions: ATCC25922, 20 h, read-out: MIC Escherichia coli ATCC25922
Description: as §1, §2, §3

## O=C1CC(NC2CCNCC2)C2COc3cc(S(=O)(=O)N4CCN(c5cc(C(F)(F)[C@@H]6COCCO6)cc(Cl)n5)CC4)ccc3N12 (mixture of isomers) [Example 027, 7-[4-[6-Chloro-4-[difluoro-[rac-(2S)-1,4-dioxan-2-yl]methyl]-2-pyridyl]piperazin-1-yl]sulfonyl-3-(4-piperidylamino)-2,3,3a,4-tetrahydropyrrolo[2,1-c][1,4]benzoxazin-1-one]
[1]
  MIC: 2.14 µg/mL (≈ 3.13 µM)
[2]
  MIC: 2.1 µg/mL (≈ 3.07 µM)

## NC[C@@H]1OC(=O)N2c3ccc(S(=O)(=O)N4CCN(c5cc(C(F)(F)F)cc(Cl)n5)CC4)cc3OC[C@@H]12 (relative stereo) [Example 001]
[1]
  MIC: 0.46 µg/mL (≈ 0.84 µM)
[2]
  MIC: 0.46 µg/mL (≈ 0.84 µM)

## NC[C@@H]1OC(=O)N2c3ccc(S(=O)(=O)N4CCN(c5cc(S(=O)(=O)C6CC6)cc(Cl)n5)CC4)cc3OC[C@@H]12 (relative stereo) [Example 003]
[1]
  MIC: 1.94 µg/mL (≈ 3.32 µM)
[2]
  MIC: 0.97 µg/mL (≈ 1.66 µM)

## NC[C@@H]1OC(=O)N2c3ccc(S(=O)(=O)N4CCN(c5cc(S(=O)(=O)c6ccc(N)cc6)cc(Cl)n5)CC4)cc3OC[C@@H]12 (relative stereo) [Example 004]
[1]
  MIC: 0.26 µg/mL (≈ 0.409 µM)
[2]
  MIC: 0.52 µg/mL (≈ 0.819 µM)

## NC[C@H]1OC(=O)N2c3ccc(S(=O)(=O)N4CCN(c5cc(S(=O)(=O)C6CC6)cc(Cl)n5)CC4)cc3OC[C@@H]12 (relative stereo) [Example 005]
[1]
  MIC: 1 µg/mL (≈ 1.71 µM)
[2]
  MIC: 0.97 µg/mL (≈ 1.66 µM)

## NC[C@@H]1OC(=O)N2c3ccc(S(=O)(=O)N4CCN(c5cc(C(F)(F)C6C7COCC76)cc(Cl)n5)CC4)cc3OC[C@@H]12 (relative stereo) [Example 018]
[1]
  MIC: 0.28 µg/mL (≈ 0.457 µM)
[2]
  MIC: 0.28 µg/mL (≈ 0.457 µM)

## Cc1cc(C(F)(F)c2cc(Cl)nc(N3CCN(S(=O)(=O)c4ccc5c(c4)OC[C@H]4[C@H](CN)OC(=O)N54)CC3)c2)ccn1 (relative stereo) [Example 019]
[1]
  MIC: 0.28 µg/mL (≈ 0.451 µM)
[2]
  MIC: 0.29 µg/mL (≈ 0.467 µM)

## O=C1O[C@@H](CO)[C@@H]2COc3cc(S(=O)(=O)N4CCN(c5cc(C(F)(F)[C@@H]6CNCCO6)cc(Cl)n5)CC4)ccc3N12 (relative stereo) [Example 050, trans-7-[4-[6-chloro-4-[difluoro-[(2S)-morpholin-2-yl]methyl]-2-pyridyl]piperazin-1-yl]sulfonyl-3-(hydroxymethyl)-3a,4-dihydro-3H-oxazolo[4,3-c][1,4]benzoxazin-1-one]
[1]
  MIC: 0.48 µg/mL (≈ 0.779 µM)
[2]
  MIC: 0.48 µg/mL (≈ 0.779 µM)

## CN1CCC(C(F)(F)c2cc(Cl)nc(N3CCN(S(=O)(=O)c4ccc5c(c4)OC[C@H]4[C@@H](CN)OC(=O)N54)CC3)c2)CC1 (stereo in doubt) [Example 010, cis-3-(aminomethyl)-7-[4-[6-chloro-4-[difluoro-(1-methyl-4-piperidyl)methyl]-2-pyridyl]piperazin-1-yl]sulfonyl-3a,4-dihydro-3H-oxazolo[4,3-c][1,4]benzoxazin-1-one]
[1]
  MIC: 0.98 µg/mL (≈ 1.56 µM)
[2]
  MIC: 0.98 µg/mL (≈ 1.56 µM)

## NC[C@H]1OC(=O)N2c3ccc(S(=O)(=O)N4CCN(c5cc(C(F)(F)C6COCCO6)cc(Cl)n5)CC4)cc3OC[C@H]12 (stereo in doubt) [Example 017, trans-3-(aminomethyl)-7-[4-[6-chloro-4-[1,4-dioxan-2-yl(difluoro)methyl]-2-pyridyl]piperazin-1-yl]sulfonyl-3a,4-dihydro-3H-oxazolo[4,3-c][1,4]benzoxazin-1-one]
[1]
  MIC: 0.57 µg/mL (≈ 0.925 µM)
[2]
  MIC: 0.57 µg/mL (≈ 0.925 µM)

## CN1CC=C(C(F)(F)c2cc(Cl)nc(N3CCN(S(=O)(=O)c4ccc5c(c4)OC[C@H]4[C@@H](CN)OC(=O)N54)CC3)c2)CC1 (stereo in doubt) [Example 020, cis-3-(aminomethyl)-7-[4-[6-chloro-4-[difluoro-(1-methyl-3,6-dihydro-2H-pyridin-4-yl)methyl]-2-pyridyl]piperazin-1-yl]sulfonyl-3a,4-dihydro-3H-oxazolo[4,3-c][1,4]benzoxazin-1-one]
[1]
  MIC: 0.29 µg/mL (≈ 0.464 µM)
[2]
  MIC: 0.29 µg/mL (≈ 0.464 µM)

## O=C1CCC2COc3cc(S(=O)(=O)N4CCN(c5cc(C(F)(F)F)cc(Cl)n5)CC4)ccc3N12 (centres unmarked) [Example 012, 7-[4-[6-Chloro-4-(trifluoromethyl)-2-pyridyl]piperazin-1-yl]sulfonyl-2,3,3a,4-tetrahydropyrrolo[2,1-c][1,4]benzoxazin-1-one]
[2]
  MIC: 0.61 µg/mL (≈ 1.18 µM)
